Data: PMC7156724, “Potent BRD4 inhibitor suppresses cancer cell-macrophage interaction” (Nature Communications, 2020)
Where “and” joins values, the source holds several entries; their conditions need not be identical. Equal values may be shown once.

Experiments:
[1] = system: MDA-MB231 triple negative breast cancer (TNBC) cells; test: AlamarBlue assay, MDA-MB231; assay type: cell-based, human; conditions: for Cellular activity in TNBCs (MDA-MB231), alamarBlue: Fig.1f, replicates; for IC50: Homo sapiens, MDA-MB-231, 72 h, 72 h treatment, nM, read-out: IC50, cellular activity in MDA-MB231 (alamarBlue)
Protocol: (§1) 3. AlamarBlue assay. AlamarBlue was made by resazurin sodium salt (Sigma, Cat
(§2) # 199303) dissolved in PBS.
(§3) NCI-H211, MDA-MB231 and A375 cells were plated in 96-well plates at approximately 30% confluence and left overnight to adhere. In the following day, […]
(§4) of treatment, 10 μl AlamarBlue reagent (0.3 mg/ml) was added to each well, and after 18h, the florescence intensity in each well was measured using a top-reading fluorescent plate reader with excitation at 530 nm and emission at 590 nm. […]

BRD4 (BD1+BD2) = target: T1, BRD4 (BD1+BD2) (Homo sapiens, UniProt O60885); test: BRD4 (BD1+BD2) TR-FRET binding assay; conditions: for Biochemical activity against BRD4 (BD1 + BD2): replicates; for IC50: average IC50, nM, read-out: IC50, biochemical activity against BRD4 (BD1 + BD2)
T1 construct: purchased BPS 32612
Text: 2. BRD4 binding assay. The inhibitory effects of NHWD-530, NHWD-540, NHWD- […]
(BPS, Cat # 32612) per manufacturer’s instructions. […]

[2] = system: NCI-H211 small cell lung cancer (SCLC) cells; test: AlamarBlue assay, NCI-H211; assay type: cell-based; conditions: for Cellular activity in SCLCs (H211), alamarBlue: Fig.1e, replicates; for IC50: Homo sapiens, NCI-H211, 72 h, 72 h treatment, nM, read-out: IC50, cellular activity in NCI-H211 (alamarBlue)
Protocol: as §1, §2, §3, §4

[3] = Fig.1d, concentration(nM) 0.0021442
[4] = Fig.1d, concentration(nM) 0.061236
[5] = Fig.1d, concentration(nM) 0.103
[6] = Fig.1d, concentration(nM) 0.59176
[7] = Fig.1d, concentration(nM) 1.19382
[8] = Fig.1d, concentration(nM) 1.79588
[9] = Fig.1d, concentration(nM) 2.39794
[10] = concentration column prints 2.52288
[11] = Fig.1b, concentration(nM) 0.0339849
[12] = Fig.1b, concentration(nM) 0.137272
[13] = Fig.1b, concentration(nM) 0.614394
[14] = Fig.1b, concentration(nM) 1.09152
[15] = Fig.1b, concentration(nM) 1.56864
[16] = Fig.1b, concentration(nM) 2.04576
[17] = Fig.1b, concentration(nM) 2.52288

Row | SMILES | Cellular activity in TNBCs (MDA-MB231), alamarBlue ([1]; concentration 0.15) | Cellular activity in TNBCs (MDA-MB231), alamarBlue ([1]; concentration 0.6) | Cellular activity in TNBCs (MDA-MB231), alamarBlue ([1]; concentration 1) | Cellular activity in TNBCs (MDA-MB231), alamarBlue ([1]; concentration 1.5) | Cellular activity in TNBCs (MDA-MB231), alamarBlue ([1]; concentration 2) | Cellular activity in TNBCs (MDA-MB231), alamarBlue ([1]; concentration 2.5) | Cellular activity in TNBCs (MDA-MB231), alamarBlue ([1]; concentration 3) | Cellular activity in TNBCs (MDA-MB231), alamarBlue ([1]; concentration -0.3) | Cellular activity in TNBCs (MDA-MB231), alamarBlue ([1]; concentration -0.9) | IC50 [1] [nM] | Biochemical activity against BRD4 (BD1 + BD2) (BRD4 (BD1+BD2); [3]) | IC50 (BRD4 (BD1+BD2)) [nM] | Biochemical activity against BRD4 (BD1 + BD2) (BRD4 (BD1+BD2); [11]) | Biochemical activity against BRD4 (BD1 + BD2) (BRD4 (BD1+BD2); [12]) | Biochemical activity against BRD4 (BD1 + BD2) (BRD4 (BD1+BD2); [13]) | Biochemical activity against BRD4 (BD1 + BD2) (BRD4 (BD1+BD2); [14]) | Biochemical activity against BRD4 (BD1 + BD2) (BRD4 (BD1+BD2); [15]) | Biochemical activity against BRD4 (BD1 + BD2) (BRD4 (BD1+BD2); [16]) | Biochemical activity against BRD4 (BD1 + BD2) (BRD4 (BD1+BD2); [17]) | Biochemical activity against BRD4 (BD1 + BD2) (BRD4 (BD1+BD2); Fig.1b, concentration(nM) 3) | further results
1 | Cc1nnn(C)c1-c1cnc2c3c4c(ccc3n([C@H](c3ccccc3)C3CCOCC3)c2c1)cnn4C [NHWD-860] | 14.34 and 13.82 | 35.72 and 34.62 | 67.92 and 71.9 | 82.83 and 82.68 | 87.1 and 88.94 | 87.8 and 87.94 | 90.46 and 89.59 | 5.89 and 8.33 | 3.7 and 7.12 | 7.08 ± 0.85 | 1.269 and 4.138 | 9.33 ± 0.97 |  |  |  |  |  |  |  |  | Biochemical activity against BRD4 (BD1 + BD2) (BRD4 (BD1+BD2); [4]): 4.399 and 1.862; Biochemical activity against BRD4 (BD1 + BD2) (BRD4 (BD1+BD2); [5]): 3 and 0.4387; Biochemical activity against BRD4 (BD1 + BD2) (BRD4 (BD1+BD2); [6]): 12.3903 and 19.5044; Biochemical activity against BRD4 (BD1 + BD2) (BRD4 (BD1+BD2); [7]): 74.9941 and 70.1565; Biochemical activity against BRD4 (BD1 + BD2) (BRD4 (BD1+BD2); [8]): 100.036 and 99.751; Biochemical activity against BRD4 (BD1 + BD2) (BRD4 (BD1+BD2); [9]): 101.174 and 100.605; Biochemical activity against BRD4 (BD1 + BD2) (BRD4 (BD1+BD2); Fig.1d, concentration(nM) 3): 100.889 and 100.32; Cellular activity in SCLCs (H211), alamarBlue ([2]; concentration 0.0169701): 1.74 and 11.45; Cellular activity in SCLCs (H211), alamarBlue ([2]; concentration 0.0398488): 4.56 and 9.08; Cellular activity in SCLCs (H211), alamarBlue ([2]; concentration 0.137272): 4.2 and 14.84; Cellular activity in SCLCs (H211), alamarBlue ([2]; concentration 0.614394): 15.53 and 29.79; Cellular activity in SCLCs (H211), alamarBlue ([2]; concentration 1.09152): 68.35 and 72.54; Cellular activity in SCLCs (H211), alamarBlue ([2]; concentration 1.56864): 88.44 and 89.49; Cellular activity in SCLCs (H211), alamarBlue ([2]; concentration 2.04576): 90.64 and 90.52; Cellular activity in SCLCs (H211), alamarBlue ([2]; concentration 3): 89.32 and 90.99; Cellular activity in SCLCs (H211), alamarBlue [2, 10]: 89.13 and 90.21; IC50 [2]: 8.06 ± 0.91 nM
2 | Cc1nnn(C)c1-c1cnc2c3cc4cnn(C)c4cc3n([C@H](c3ccccc3)C3CCOCC3)c2c1 [NHWD-850] | 15.75 and 17.7 | 25.28 and 23.6 | 46.11 and 48.16 | 71.17 and 69.3 | 82.44 and 82.62 | 86.67 and 86.03 | 88.63 and 88.4 | 7.16 and 12.83 | 4.44 and 11.66 | 14.5 ± 1.16 | 0.1541 and 1.269 | 20.6 ± 1.31 |  |  |  |  |  |  |  |  | Biochemical activity against BRD4 (BD1 + BD2) (BRD4 (BD1+BD2); [4]): 12.3903 and 11.5366; Biochemical activity against BRD4 (BD1 + BD2) (BRD4 (BD1+BD2); [5]): 4.399 and 8.952; Biochemical activity against BRD4 (BD1 + BD2) (BRD4 (BD1+BD2); [6]): 7.837 and 3; Biochemical activity against BRD4 (BD1 + BD2) (BRD4 (BD1+BD2); [7]): 31.456 and 32.5943; Biochemical activity against BRD4 (BD1 + BD2) (BRD4 (BD1+BD2); [8]): 96.9054 and 95.198; Biochemical activity against BRD4 (BD1 + BD2) (BRD4 (BD1+BD2); [9]): 100.036 and 100.889; Biochemical activity against BRD4 (BD1 + BD2) (BRD4 (BD1+BD2); Fig.1d, concentration(nM) 3): 99.751 and 100.889; Cellular activity in SCLCs (H211), alamarBlue ([2]; concentration 0.0169701): 0.35 and 1.87; Cellular activity in SCLCs (H211), alamarBlue ([2]; concentration 0.0398488): 0.32 and 1.84; Cellular activity in SCLCs (H211), alamarBlue ([2]; concentration 0.137272): 0.23 and -0.84; Cellular activity in SCLCs (H211), alamarBlue ([2]; concentration 0.614394): 7.16 and 14.38; Cellular activity in SCLCs (H211), alamarBlue ([2]; concentration 1.09152): 35.94 and 34.48; Cellular activity in SCLCs (H211), alamarBlue ([2]; concentration 1.56864): 89.1 and 88.35; Cellular activity in SCLCs (H211), alamarBlue ([2]; concentration 2.04576): 90.09; Cellular activity in SCLCs (H211), alamarBlue ([2]; concentration 3): 89.78 and 89.22; Cellular activity in SCLCs (H211), alamarBlue [2, 10]: 89.03 and 89.34; IC50 [2]: 16 ± 1.21 nM
3 | Cc1nnn(C)c1-c1cnc2c3cc4c(cc3n([C@H](c3ccccc3)C3CCOCC3)c2c1)C(=O)N(C)C4 [NHWD-530] |  |  |  |  |  |  |  |  |  |  |  | 28.5 | 0.9223 and 6.575 | 8.361 and 5.3853 | 7.766 and 14.6266 | 25.6174 and 20.5594 | 58.197 | 88.9914 and 87.355 | 96.1321 and 98.9586 | 102.231 and 101.636 | 
4 | Cc1nnn(C)c1-c1cnc2c3c4ccn(C)c4ccc3n([C@H](c3ccccc3)C3CCOCC3)c2c1 [NHWD-830] |  |  |  |  |  |  |  |  |  |  |  | 10.2 | 0.8628 and 1.4579 | 6.575 and 2.559 | 10.2946 and 5.683 | 69.3038 and 62.4692 | 79.3216 and 83.6358 | 95.8346 and 94.942 | 100.744 and 99.5537 | 101.346 and 101.785 | 
5 | Cc1nnn(C)c1-c1cnc2c3cc4c(cc3n([C@H](c3ccccc3)C3CCOCC3)c2c1)CN(C)C4=O [NHWD-540] |  |  |  |  |  |  |  |  |  |  |  | 18.1 | 5.534 and 1.544 | 6.278 and 5.237 | 11.7822 and 11.931 | 36.626 and 29.039 | 74.1149 and 79.0241 | 94.7932 and 97.1735 | 100.446 and 100.744 | 101.488 and 101.636 | 
6 | Cc1nnn(C)c1-c1cnc2c3cc4c(cnn4C)cc3n([C@H](c3ccccc3)C3CCOCC3)c2c1 [NHWD-840] | 9.03 and 8.43 | 17.61 and 17.32 | 35.92 and 25.61 | 53.39 and 55.36 | 70.13 and 73.2 | 91.51 and 91.02 | 94.65 and 95.19 | 6.21 and 5.27 | 2.77 and 4.58 | 31.6 ± 1.5 | 6.699 and 2.7152 | 28.3 ± 1.45 |  |  |  |  |  |  |  |  | Biochemical activity against BRD4 (BD1 + BD2) (BRD4 (BD1+BD2); [4]): 2.407 and 5.845; Biochemical activity against BRD4 (BD1 + BD2) (BRD4 (BD1+BD2); [5]): 1.577 and 18.3661; Biochemical activity against BRD4 (BD1 + BD2) (BRD4 (BD1+BD2); [6]): 2.146 and 9.5447; Biochemical activity against BRD4 (BD1 + BD2) (BRD4 (BD1+BD2); [7]): 15.5205 and 30.3178; Biochemical activity against BRD4 (BD1 + BD2) (BRD4 (BD1+BD2); [8]): 82.9618 and 83.2464; Biochemical activity against BRD4 (BD1 + BD2) (BRD4 (BD1+BD2); [9]): 99.4664 and 98.6128; Biochemical activity against BRD4 (BD1 + BD2) (BRD4 (BD1+BD2); Fig.1d, concentration(nM) 3): 101.174 and 100.889; Cellular activity in SCLCs (H211), alamarBlue ([2]; concentration 0.0169701): 11.62 and 22.01; Cellular activity in SCLCs (H211), alamarBlue ([2]; concentration 0.0398488): 7.96 and 8.04; Cellular activity in SCLCs (H211), alamarBlue ([2]; concentration 0.137272): 3.53 and 13.11; Cellular activity in SCLCs (H211), alamarBlue ([2]; concentration 0.614394): 11.24 and 2.1; Cellular activity in SCLCs (H211), alamarBlue ([2]; concentration 1.09152): 18.38 and 12.66; Cellular activity in SCLCs (H211), alamarBlue ([2]; concentration 1.56864): 47.24 and 47.49; Cellular activity in SCLCs (H211), alamarBlue ([2]; concentration 2.04576): 87.44 and 87.79; Cellular activity in SCLCs (H211), alamarBlue ([2]; concentration 3): 95.52 and 94.98; Cellular activity in SCLCs (H211), alamarBlue [2, 10]: 93.3 and 93.73; IC50 [2]: 38 ± 1.58 nM
7 | Cc1nnn(C)c1-c1cnc2c3c4c(ccc3n([C@H](c3ccccc3)C3CCOCC3)c2c1)C(=O)N(C)C4 [NHWD-560] |  |  |  |  |  |  |  |  |  |  |  | 19.5 | 10.1562 and 13.125 | 5 and 10.625 | 14.5312 and 15.4688 | 33.5938 and 32.5 | 66.25 and 68.125 | 95.625 and 95 | 101.719 | 102.344 and 102.5 | 
